# Measured values taken from PMC5864910, “Mutacin 1140 Lantibiotic Variants Are Efficacious Against Clostridium difficile Infection” (Frontiers in Microbiology, 2018).
# Where two headings read alike, the source gives them in different places. No end group written: not given here.
# Legend:
# Mycobacterium phlei [1] = tested on: Mycobacterium phlei
# [2] = tested on: HepG2 human hepatocellular carcinoma cells
# Protocol: The HepG2 cytotoxicity evaluation was performed by MB Research Labs (Spinnerstown, PA, United States) by the Neutral Red Uptake Bioassay of HepG2 human hepatocellular carcinoma cells in culture (ATCC #HB-8065). Briefly, HepG2 cells were seeded in the central 60 wells of 96-well plates and maintained in culture for approximately 24 h. Following pre-incubation, the culture medium was replaced with culture medium containing increasing concentrations of the test articles or control in the vehicle. Test articles were tested in triplicate wells, and reported as the mean. The cells were incubated for 24 h and cell viability was determined by Neutral Red (NR) uptake. For this assay, the medium was then replaced with NR medium (50 μg/mL NR in Hanks’ Balance Salt Solution, HBSS) and the cells were incubated for an additional 3 h. Following uptake of NR, the medium was discarded, the wells were washed with HBSS, and lysing solution (50:49:1 ethanol:water:acetic acid) was added subsequently to each well. The plates were placed on a rocker for 30 min until NR had been extracted from the cells and formed a homogeneous solution. The absorbance of each well was measured at 540 nm on a μQuant^TM plate reader (Bio-Tek Instruments) using KCjunior^TM software. The mean of the outer wells (DMEM2-FBS) was used as a reference control. The mean percent viability was determined for each concentration compared to the vehicle-treated control.
# Staphylococcus aureus = conditions: n = 5 strains; unit from method b19
# Mycobacterium phlei [3] = test: microbe, parasite or virus in culture; conditions: Mycolicibacterium phlei
# Clostridium difficile = conditions: n = 3 strains; unit from method b19
# C. difficile UNT103-1 = test: Cannulated Syrian hamster efficacy/relapse model of C. difficile infection (cHCDAD); type: in vivo, Golden Syrian hamsters; conditions: vancomycin 20 mg/Kg QD × 5 days, ileal canula, n = 6
# Streptococcus pneumonia = test: microbe, parasite or virus in culture; conditions: Streptococcus pneumoniae, read-out: MIC to S. pneumoniae
# [4] = tested on: NMDA ion channel receptor; test: Safety Screen 44: NMDA; type: binding, human
# Kv Channel [5] = test: Safety Screen 44: Kv Channel; type: binding, human
# Nav Channel [6] = test: Safety Screen 44: Nav Channel; type: binding, human
# Ca2+ Channel [7] = test: Safety Screen 44: Ca2+ Channel; type: binding, human
# BZD (central) [8] = test: Safety Screen 44: BZD (central); type: binding, human
# Pseudomonas aeruginosa = test: MIC broth dilution, P. aeruginosa; type: cell-based
# C. difficile = tested on: C. difficile; design: method as in McBride and Sonenshein, 2011; conditions: ref McBride and Sonenshein, 2011, cited from earlier work
# BZD (central) [9] = test: Safety Screen 44: BZD (central); type: binding, human; remark: listed apart in the source
# Ca2+ Channel [10] = test: Safety Screen 44: Ca2+ Channel; type: binding, human; remark: listed apart in the source
# Nav Channel [11] = test: Safety Screen 44: Nav Channel; type: binding, human; remark: listed apart in the source
# Kv Channel [12] = test: Safety Screen 44: Kv Channel; type: binding, human; remark: listed apart in the source
compound,measurement,setting,value
C=C1NC(=O)[C@H](Cc2c[nH]c3ccccc23)NC(=O)[C@H](NC(=O)[C@H](CCCCN)NC(=O)[C@@H](N)Cc2ccccc2)CSC[C@@H](C(=O)N[C@H]2C(=O)N[C@@H](Cc3c[nH]cn3)C(=O)NCC(=O)N[C@H](C(=O)N[C@@H](C)C(=O)N[C@@H](CCCNC(=N)N)C(=O)N/C(=C\C)C(=O)NCC(=O)N[C@@H]3CSC[C@@H]4NC(=O)[C@H](Cc5ccc(O)cc5)NC(=O)[C@@H](CS/C=C\NC4=O)NC(=O)[C@H](CC(N)=O)NC(=O)[C@H](Cc4ccccc4)NC3=O)CS[C@H]2C)NC(=O)[C@H](CC(C)C)NC1=O [P9H],Minimum Inhibitory Concentration Mycobacterium phlei,Mycobacterium phlei [1],4 µg/mL
same,HepG2 EC50,[2]; 24 h,218 µg/mL
C=C1NC(=O)[C@H](C(C)C)NC(=O)[C@H](NC(=O)[C@H](CCCCN)NC(=O)[C@@H](N)Cc2ccccc2)CSC[C@@H](C(=O)N[C@H]2C(=O)N3CCC[C@H]3C(=O)NCC(=O)N[C@H](C(=O)N[C@@H](C)C(=O)N[C@@H](CCCNC(=N)N)C(=O)N/C(=C\C)C(=O)NCC(=O)N[C@@H]3CSC[C@@H]4NC(=O)[C@H](Cc5ccc(O)cc5)NC(=O)[C@@H](CS/C=C\NC4=O)NC(=O)[C@H](CC(N)=O)NC(=O)[C@H](Cc4ccccc4)NC3=O)CS[C@H]2C)NC(=O)[C@H](CC(C)C)NC1=O [W4V],Minimum Inhibitory Concentration Mycobacterium phlei,Mycobacterium phlei [1],4 µg/mL
same,HepG2 EC50,[2]; 24 h,> 1002
CN[C@H](CC(C)C)C(=O)N[C@H]1C(=O)N[C@@H](CC(N)=O)C(=O)N[C@H]2C(=O)N[C@H]3C(=O)N[C@H](C(=O)N[C@H](C(=O)O)c4cc(O)cc(O)c4-c4cc3ccc4O)[C@H](O)c3ccc(c(Cl)c3)Oc3cc2cc(c3O[C@@H]2O[C@H](CO)[C@@H](O)[C@H](O)[C@H]2O[C@H]2C[C@](C)(N)[C@H](O)[C@H](C)O2)Oc2ccc(cc2Cl)[C@H]1O [vancomycin],MIC against S. aureus (range),Staphylococcus aureus,0.125 to 2 µg/mL
same,MIC,"Mycobacterium phlei [3]; read-out: MIC, M. phlei",0.25 µg/mL
same,MIC,Mycobacterium phlei [3]; read-out: Minimum Inhibitory Concentration Mycobacterium phlei,250 µg/mL
same,MIC against C. difficile (range),Clostridium difficile,0.5 to 4 µg/mL
same,survival at day 21,C. difficile UNT103-1,33%
CC1(C)S[C@@H]2[C@H](NC(=O)[C@H](N)c3ccccc3)C(=O)N2[C@H]1C(=O)O [ampicillin],MIC,Streptococcus pneumonia,1 µg/mL
C=C1NC(=O)[C@H](Cc2c[nH]c3ccccc23)NC(=O)[C@H](NC(=O)[C@H](CCCCN)NC(=O)[C@@H](N)Cc2ccccc2)CSC[C@@H](C(=O)N[C@H]2C(=O)N3CCC[C@H]3C(=O)NCC(=O)N[C@H](C(=O)N[C@@H](C)C(=O)N[C@@H](CCCNC(=N)N)C(=O)N/C(=C\C)C(=O)NCC(=O)N[C@@H]3CSC[C@@H]4NC(=O)[C@H](Cc5ccc(O)cc5)NC(=O)[C@@H](CS/C=C\NC4=O)NC(=O)[C@H](CC(N)=O)NC(=O)[C@H](Cc4ccccc4)NC3=O)CS[C@H]2C)NC(=O)[C@H](C)NC1=O [L6A],Cerep SafetyScreen 44 % Inhibition NMDA,[4],15%
same,Minimum Inhibitory Concentration Mycobacterium phlei,Mycobacterium phlei [1],4 µg/mL
same,Cerep SafetyScreen 44 % Inhibition Kv Channel,Kv Channel [5],8%
same,Cerep SafetyScreen 44 % Inhibition Nav Channel,Nav Channel [6],8%
same,Cerep SafetyScreen 44 % Inhibition Ca2+ Channel,Ca2+ Channel [7],3%
same,Cerep SafetyScreen 44 % Inhibition BZD (central),BZD (central) [8],-6%
same,HepG2 EC50,[2]; HepG2 cytotoxicity,466 µg/mL
CC1COc2c(N3CCN(C)CC3)c(F)cc3c(=O)c(C(=O)O)cn1c23 (stereo not drawn) [Ofloxacin],MIC,Pseudomonas aeruginosa,1000 µg/mL
"gallidermin (IASKFLCTPGCAKTGSFNSYCC; thioether (positions not given here); also: lanthionine/methyllanthionine bridges, places not given here; UniProt P21838 31-52, looked up) [lantibiotic cited from literature]",MIC increase of C. difficile,C. difficile; cpr resistance,2–4 fold
same,MIC of C. difficile,C. difficile; level after MIC increase (cpr),~1 µg/mL
C=C1NC(=O)[C@H](Cc2c[nH]c3ccccc23)NC(=O)[C@H](NC(=O)[C@H](CCCCN)NC(=O)[C@@H](N)Cc2ccccc2)CSC[C@@H](C(=O)N[C@H]2C(=O)N3CCC[C@H]3C(=O)NCC(=O)N[C@H](C(=O)N[C@@H](C)C(=O)N[C@@H](CC(C)C)C(=O)N/C(=C\C)C(=O)NCC(=O)N[C@@H]3CSC[C@@H]4NC(=O)[C@H](Cc5ccc(O)cc5)NC(=O)[C@@H](CS/C=C\NC4=O)NC(=O)[C@H](CC(N)=O)NC(=O)[C@H](Cc4ccccc4)NC3=O)CS[C@H]2C)NC(=O)[C@H](CC(C)C)NC1=O [R13L],Minimum Inhibitory Concentration Mycobacterium phlei,Mycobacterium phlei [1],8 µg/mL
C=C1NC(=O)[C@H](Cc2c[nH]c3ccccc23)NC(=O)[C@H](NC(=O)[C@H](CCCCN)NC(=O)[C@@H](N)Cc2ccccc2)CSC[C@@H](C(=O)N[C@H]2C(=O)N3CCC[C@H]3C(=O)NCC(=O)N[C@H](C(=O)N[C@@H](C)C(=O)N[C@@H](CCCNC(=N)N)C(=O)N/C(=C\C)C(=O)NCC(=O)N[C@@H]3CSC[C@@H]4NC(=O)[C@H](Cc5ccc(O)cc5)NC(=O)[C@@H](CS/C=C\NC4=O)NC(=O)[C@H](CC(N)=O)NC(=O)[C@H](Cc4ccc(O)cc4)NC3=O)CS[C@H]2C)NC(=O)[C@H](CC(C)C)NC1=O [F17Y],Cerep SafetyScreen 44 % Inhibition BZD (central),BZD (central) [9],-10%
same,Cerep SafetyScreen 44 % Inhibition NMDA,[4]; […],12%
same,Cerep SafetyScreen 44 % Inhibition Ca2+ Channel,Ca2+ Channel [10],-7%
same,Cerep SafetyScreen 44 % Inhibition Nav Channel,Nav Channel [11],2%
same,Minimum Inhibitory Concentration Mycobacterium phlei,Mycobacterium phlei [1],2 µg/mL
same,Cerep SafetyScreen 44 % Inhibition Kv Channel,Kv Channel [12],2%
same,HepG2 EC50,[2]; HepG2 cytotoxicity,514 µg/mL
C=C1NC(=O)[C@H](Cc2c[nH]c3ccccc23)NC(=O)[C@H](NC(=O)[C@H](CCCCN)NC(=O)[C@@H](N)Cc2ccccc2)CSC[C@@H](C(=O)N[C@H]2C(=O)N3CCC[C@H]3C(=O)NCC(=O)N[C@H](C(=O)N[C@@H](C)C(=O)N[C@@H](CCCNC(=N)N)C(=O)N/C(=C\C)C(=O)NCC(=O)N[C@@H]3CSC[C@@H]4NC(=O)[C@H](Cc5ccc(O)cc5)NC(=O)[C@@H](CS/C=C\NC4=O)NC(=O)[C@H](CC(N)=O)NC(=O)[C@H](Cc4ccccc4)NC3=O)CS[C@H]2C)NC(=O)[C@H]([C@@H](C)O)NC1=O [L6T],Minimum Inhibitory Concentration Mycobacterium phlei,Mycobacterium phlei [1],4 µg/mL
same,HepG2 EC50,[2]; 24 h,541 µg/mL
C=C1NC(=O)[C@H](C)NC(=O)[C@H](NC(=O)[C@H](CCCCN)NC(=O)[C@@H](N)Cc2ccccc2)CSC[C@@H](C(=O)N[C@H]2C(=O)N3CCC[C@H]3C(=O)NCC(=O)N[C@H](C(=O)N[C@@H](C)C(=O)N[C@@H](CCCNC(=N)N)C(=O)N/C(=C\C)C(=O)NCC(=O)N[C@@H]3CSC[C@@H]4NC(=O)[C@H](Cc5ccc(O)cc5)NC(=O)[C@@H](CS/C=C\NC4=O)NC(=O)[C@H](CC(N)=O)NC(=O)[C@H](Cc4ccccc4)NC3=O)CS[C@H]2C)NC(=O)[C@H](CC(C)C)NC1=O [W4A],Minimum Inhibitory Concentration Mycobacterium phlei,Mycobacterium phlei [1],2 µg/mL
same,HepG2 EC50,[2]; 24 h,> 1001
C=C1NC(=O)[C@H](Cc2c[nH]c3ccccc23)NC(=O)[C@H](NC(=O)[C@H](CCCCN)NC(=O)[C@@H](N)Cc2ccccc2)CSC[C@@H](C(=O)N[C@H]2C(=O)N3CCC[C@H]3C(=O)NCC(=O)N[C@H](C(=O)N[C@@H](C)C(=O)N[C@@H](C)C(=O)N/C(=C\C)C(=O)NCC(=O)N[C@@H]3CSC[C@@H]4NC(=O)[C@H](Cc5ccc(O)cc5)NC(=O)[C@@H](CS/C=C\NC4=O)NC(=O)[C@H](CC(N)=O)NC(=O)[C@H](Cc4ccccc4)NC3=O)CS[C@H]2C)NC(=O)[C@H](CC(C)C)NC1=O [R13A],Minimum Inhibitory Concentration Mycobacterium phlei,Mycobacterium phlei [1],8 µg/mL
